For test [1], the system named is Halorubrum lacusprofundi. As to the kind of experiment: Aerobic growth rate of Halorubrum lacusprofundi with added salts. The class given is cell-based. How it is done:
(§1) For aerobic growth, cultures of halophiles were shaken in the light in test tubes at 42°C in CM^+ for Halobacterium sp. NRC-1 and at 37°C in ATCC 1682 media for H. lacusprofundi (Berquist et al., [2007]), adjusted to the desired concentration of NaClO4, MgCl2, and Mg(ClO4)2. For anaerobic growth, cultures were grown in the dark without shaking, essentially as described previously (Oren et al., [2014]). OD600 was recorded with a Spectronic 200 (ThermoFisher Scientific, Waltham, MA) test tube reader. Growth rates were calculated by using the slope of a line of regression calculated from early to mid-log phase.

The test system of test [2] is Halobacterium sp. NRC-1. As to the kind of experiment: Aerobic growth rate of Halobacterium sp. NRC-1 with added salts. The note with it: Mg2+ added. The class given is cell-based. The protocol: as §1
In test [3] the target is T1, H. lacusprofundi β-galactosidase enzyme (Halorubrum lacusprofundi, UniProt B9LW38).
T1 construct: made in house; host or cells: Halobacterium sp; NRC-1 (pRK42)
T1 sequence (B9LW38 1-700): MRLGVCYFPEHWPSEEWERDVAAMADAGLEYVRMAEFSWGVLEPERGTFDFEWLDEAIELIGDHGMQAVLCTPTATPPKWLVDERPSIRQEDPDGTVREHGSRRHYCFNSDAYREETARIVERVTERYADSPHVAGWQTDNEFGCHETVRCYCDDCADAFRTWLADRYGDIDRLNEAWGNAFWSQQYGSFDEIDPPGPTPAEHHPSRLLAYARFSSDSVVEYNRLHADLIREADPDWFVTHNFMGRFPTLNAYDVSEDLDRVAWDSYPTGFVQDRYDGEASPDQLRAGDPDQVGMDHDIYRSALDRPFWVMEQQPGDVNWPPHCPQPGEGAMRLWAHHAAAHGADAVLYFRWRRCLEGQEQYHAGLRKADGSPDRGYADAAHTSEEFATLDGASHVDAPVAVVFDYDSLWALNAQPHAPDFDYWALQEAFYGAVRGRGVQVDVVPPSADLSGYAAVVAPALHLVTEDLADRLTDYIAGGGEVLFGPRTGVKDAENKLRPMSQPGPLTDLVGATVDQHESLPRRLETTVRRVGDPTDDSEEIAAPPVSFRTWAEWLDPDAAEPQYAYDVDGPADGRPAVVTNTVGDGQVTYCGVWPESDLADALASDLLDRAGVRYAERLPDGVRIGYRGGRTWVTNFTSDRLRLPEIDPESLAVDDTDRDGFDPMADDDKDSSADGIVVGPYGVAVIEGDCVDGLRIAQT
As to the kind of experiment: Steady-state kinetic inhibition of purified β-galactosidase (ONPG). The class given is biochemical. The note with it: for type of inhibition: Lineweaver-Burk / Dixon plots. The protocol:
To purify β-galactosidase, cultures of Halobacterium sp. NRC-1 (pRK42) (Karan et al., [2013]) were grown to late-log phase (OD600 ∼ 1.0), harvested, resuspended in binding buffer (20 mM phosphate buffer, 2.0 M NaCl, 10% (v/v) glycerol, 30 mM imidazole, pH 7.4), and lysed by sonication (Model 50 Sonic Dismembrator, ThermoFisher Scientific, Waltham, MA). Cell debris was removed by centrifugation (25,000g, 4°C, 10 min) in an Eppendorf 5417C centrifuge, and resulting crude extract was filtered through a 0.2 μm polyethersulfone filter (ThermoFisher Scientific, Waltham, MA). The proteins were purified by using Nickel HisTrap HP Columns (GE Healthcare, Chicago, IL), equilibrated, and washed with binding buffer, and eluted sequentially with 2 M NaCl, 100 mM phosphate buffer (pH 7.4) supplemented with 40, 80, 100, 200, and 500 mM imidazole.
Column fractions were tested for activity with o-nitrophenyl-β-D-galactopyranoside (ONPG, ThermoFisher Scientific, Waltham, MA). Active fractions were combined and protein concentration estimated by absorption at 280 nm with a Shimadzu UV-1601 spectrophotometer (Shimadzu Corporation, Kyoto, Japan). To confirm purity, the protein was analyzed by 10% SDS-PAGE followed by staining with Coomassie Blue (Millipore Sigma, Billerica, MA).
The inhibitory properties of Mg^2+ and ClO4^− ions on the β-galactosidase enzyme were tested through steady-state kinetics with a Shimadzu UV-1601 spectrophotometer. The assay solution containing 10 μg/mL enzyme was preincubated at 50°C followed by addition of ONPG at three different concentrations (1, 2.5, and 5 mM), and absorption was recorded at 420 nm. V0, the Michaelis constant (Km), as well as Vmax, were determined with UV Probe ver. 4.23 software (Shimadzu Corporation, Kyoto, Japan). kcat was calculated from given values of Km and Vmax. After the kinetic experiments were recorded, Lineweaver-Burk plots for each concentration of the inhibitory ion were used to determine whether the inhibition was competitive or noncompetitive. KI was determined by using Dixon plots, which use the reciprocal velocity of multiple steady-state kinetic experiments at multiple substrate and inhibitor concentrations to extrapolate the concentration of inhibitor that results in half-maximal inhibition (Yoshino and Murakami, [2009]). All experiments were run in triplicate and averages used for kinetic analysis.

Test [4] relates to Halorubrum lacusprofundi. The test is described as follows: Anaerobic growth assay of Halorubrum lacusprofundi. The class given is cell-based. Particulars: 40 mM (0.04 M) perchlorate, dark, no oxygen, 8 days. How it is done:
as §1

Test [5] deals with Halobacterium sp. NRC-1. The test is described as follows: Anaerobic growth assay of Halobacterium sp. NRC-1. Type of test: cell-based. Particulars: 40 mM NaClO4, dark, no oxygen, 8 days. How it is done: as §1
Test [6] deals with Methanobacterium articum M2 VKM B-2372. More on the design: method as in Shcherbakova et al., 2015. The note with it: 9.8 mM NaClO4; ref Shcherbakova et al., 2015; cited from earlier work.
Test [7] relates to Methanobacterium veterum MK4 VKM B-2440. Set-up: method as in Shcherbakova et al., 2015. The note with it: 9.8 mM NaClO4; ref Shcherbakova et al., 2015; cited from earlier work.
The next test concerns Methanosarcina sp. Set-up: method as in Shcherbakova et al., 2015. The note with it: 9.8 mM NaClO4; ref Shcherbakova et al., 2015; cited from earlier work.
In another test the test system is methanogens. More on the design: method as in Kral et al., 2004. Particulars: grown on Mars soil simulant; ref Kral et al., 2004; cited from earlier work.

Values joined by “and” are separate entries in the source; they are usually repeats but may differ in a detail not shown here. Equal entries are not always repeated. “Also recorded” adds a separate entry of the source.

Take `[Mg+2]` [MgCl2, magnesium chloride]: the “highest concentration at which a measurable growth rate was recorded” value in the test with Halorubrum lacusprofundi [1] (ATCC 1682 medium) worked out at 1.4 M. The inhibition of growth at 1.2 M in the test with Halorubrum lacusprofundi [1] (Halorubrum lacusprofundi, 1.2 M Mg2+ (MgCl2 added), read-out: decrease in growth rate) was found to be 40%. Moreover, the inhibition of growth at 1.4 M with Halorubrum lacusprofundi [1] (Halorubrum lacusprofundi, 1.4 M Mg2+ (MgCl2 added), read-out: decrease in growth rate) is 80%. Also, in the test on Halorubrum lacusprofundi [1] (MgCl2 added, listed as Mg^2+), the “concentration up to which a substantial growth rate is retained / no significantly deleterious effect” value is 0.9 M and ~1 M. Further, the “concentration up to which no significantly deleterious effect on growth” value in the test on Halobacterium sp. NRC-1 [2] is given as ~1 M. The inhibition at 250000 µM in test [3] (0.5 M Na+ replaced with 0.25 M Mg2+ using magnesium chloride, read-out: decrease in catalytic efficiency) turned out to be 70%. Further, the type of inhibition entry is on record as “competitive inhibitor” in [3] and “competitive inhibition” in test [3] (listed as Mg^2+).
`[O-][Cl+3]([O-])([O-])O` [NaClO4, sodium perchlorate]: the “anaerobic growth with perchlorate” value is reported as “able to grow anaerobically” in the test with Halorubrum lacusprofundi [4] and “incapable of anaerobic growth” in the test on Halobacterium sp. NRC-1 [5]. For the same molecule, the type of inhibition result was “very weak noncompetitive inhibitor” in [3] (listed as perchlorate), “noncompetitive inhibitor” in test [3] (listed as perchlorate ions) and “noncompetitive inhibition” in test [3] (listed as sodium perchlorate). In addition, in test [3] (at the concentrations tested), the “protein precipitation (salting-out)” value is on record as “no protein precipitation”. Also, the reduction in methanogenesis (in test [6]; in test [7]; in the test on Methanosarcina sp.) was 80% throughout.
`[O-][Cl+3]([O-])([O-])O` [Mg(ClO4)2, magnesium perchlorate]: the type of inhibition entry in test [3] was “mixed inhibitor; also recorded: mixed inhibition”. The “concentration up to which methanogens metabolize” value in the test on methanogens was “up to 0.06 M”.
